The target of one assay is alpha-1 receptors. As to the kind of experiment: Inhibition of binding of [3H]Prazosine to rat alpha-1 receptors. The note with it: [3H]Prazosine 0.25 nM, membranes from rat brain. Here is the method: Inhibition of Binding of [^3H]Prazosine to Rat Alpha-1 Receptors
By this method the inhibition by drugs of the binding of [^3H]Prazosine (0.25 nM) to alpha-1 receptors in membranes from rat brain is determined in vitro. Method modified from Hyttel et al. J. Neurochem. 1985, 44, 1615–1622.

Assay [1] concerns the target T1, human cloned dopamine D3 receptors (Homo sapiens, UniProt P35462).
T1 construct: expressed in transfected cells; host or cells: CHO cells
Description: Inhibition of the binding of [3H]Spiperone to human D3 receptors. Particulars: [3H]Spiperone 0.3 nM, membranes of CHO-cells; for IC50: read-out: D3-bind. IC50; for inhibition at 0.1 µM: read-out: D3-bind. % inhibition of binding at 100 nM. Here is the method: Inhibition of the Binding of [^3H]Spiperone to Human D3 Receptors
By this method the inhibition by drugs of the binding [^3H]Spiperone (0.3 nM) to membranes of human cloned dopamine D3 receptors expressed in CHO-cells is determined in vitro. Method modified from MacKenzie et al. Eur. J. Pharm.-Mol. Pharm. Sec. 1994, 266, 79–85.

For assay [2], the target named is T2, human cloned dopamine D4.2 receptors (Homo sapiens, UniProt P21917, DEL265-296).
T2 construct: expressed in transfected cells; host or cells: CHO cells
T2 sequence (P21917 with tags, fused parts or gaps DEL265-296): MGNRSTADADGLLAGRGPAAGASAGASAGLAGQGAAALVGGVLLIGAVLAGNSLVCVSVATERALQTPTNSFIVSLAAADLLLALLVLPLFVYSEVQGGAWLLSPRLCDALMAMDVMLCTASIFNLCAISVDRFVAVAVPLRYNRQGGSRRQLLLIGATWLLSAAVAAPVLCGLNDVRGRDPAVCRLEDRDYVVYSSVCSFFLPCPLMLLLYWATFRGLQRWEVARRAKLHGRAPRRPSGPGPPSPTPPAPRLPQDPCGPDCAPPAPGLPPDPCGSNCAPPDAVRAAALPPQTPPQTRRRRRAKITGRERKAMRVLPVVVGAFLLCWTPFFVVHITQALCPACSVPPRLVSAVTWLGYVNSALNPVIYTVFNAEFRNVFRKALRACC
Description: Inhibition of the binding of [3H]YM-09151-2 to human dopamine D4 receptors. The note with it: [3H]YM-09151-2 0.06 nM, membranes of CHO-cells; read-out: D4-bind. IC50. The protocol: Inhibition of the Binding of [^3H]YM-09151-2 to Human Dopamine D4 Receptors
By this method the inhibition by drugs of the binding of [^3H]YM-09151–2 (0.06 nM) to membranes of human cloned dopamine D4.2 receptors expressed in CHO-cells is determined in vitro. Method modified from NEN Life Science Products, Inc., technical data certificate PC2533-10/96.

T1 sequence (P35462 whole entry): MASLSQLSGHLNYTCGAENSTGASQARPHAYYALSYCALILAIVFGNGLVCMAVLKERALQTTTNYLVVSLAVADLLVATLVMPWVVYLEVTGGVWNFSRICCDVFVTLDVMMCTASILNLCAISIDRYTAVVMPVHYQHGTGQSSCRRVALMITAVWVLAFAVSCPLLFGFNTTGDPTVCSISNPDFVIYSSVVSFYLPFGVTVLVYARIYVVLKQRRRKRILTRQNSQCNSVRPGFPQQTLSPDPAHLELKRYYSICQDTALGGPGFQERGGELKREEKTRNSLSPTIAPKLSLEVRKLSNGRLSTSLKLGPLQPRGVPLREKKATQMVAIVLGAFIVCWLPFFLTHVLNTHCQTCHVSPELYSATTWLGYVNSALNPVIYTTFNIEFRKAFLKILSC

In general, IC50 refers to the concentration at which inhibition is half-maximal. For `Clc1cccc(N2CCN(CCCCc3c[nH]c4ccccc34)CC2)c1Cl` [Compound 5b, 3-{4-[4-(2,3-Dichlorophenyl)piperazin-1-yl]butyl}-1H-indole], the IC50 came out at 0.57 µM at alpha-1 receptors, 0.0011 µM in assay [1] and 0.014 µM in assay [2].
`O=C(CCN1CCN(c2cccc(Cl)c2Cl)CC1)N1CCc2ccccc21` [Compound 1a, 3-[4-(2,3-Dichlorophenyl)piperazin-1-yl]-1-(2,3-dihydro-1H-indol-1-yl)propan-1-one]: the figures for the IC50 (on alpha-1 receptors; in assay [1]; in assay [2]) were 0.059 µM, 0.1 µM and 0.0033 µM, respectively.
In the case of “5-[4-(2,3-Dichloro-phenyl)-piperazin-1-yl]-1-(3,4-dihydro-1H-isoquinolin-2-yl)propan-1-one [Compound 7f]”, the “Alpha-1 % inhibition of binding at 100 nM” value (from here on “Alpha-1 % inhibition”) in the assay on alpha-1 receptors amounted to 34%. Besides, the “D3-bind. % inhibition of binding at 100 nM” value in assay [1] (100 nM) turned out to be 95%. Besides, the IC50 in assay [2] was found to be 0.026 µM.
For `O=C(CCCCN1CCN(c2cccc(Cl)c2Cl)CC1)N1CCc2ccccc21` [Compound 1c, 5-[4-(2,3-Dichlorophenyl)piperazin-1-yl]-1-(2,3-dihydro-1H-indol-1-yl)pentan-1-one], the IC50 worked out at 0.16 µM on alpha-1 receptors, 0.01 µM in assay [1] and 0.039 µM in assay [2].
For `Clc1cccc(N2CCN(CCCCN3CCc4ccccc43)CC2)c1Cl` [Compound 2b, 1-{4-[4-(2,3-Dichlorophenyl)piperazin-1-yl]butyl}-2,3-dihydro-1H-indole], the “Alpha-1 % inhibition” value in the assay on alpha-1 receptors stood at 10%. The IC50 in assay [1] is 0.0031 µM; in assay [2] it was 0.012 µM.
What is called inhibition is the change of the read-out against control, counted positive when it falls. For the compound `O=C(CCN1CCN(c2cccc(Cl)c2Cl)CC1)N1CCc2cc(F)ccc21` [Compound 7a, 3-[4-(2,3-Dichlorophenyl)piperazin-1-yl]-1-(5-fluoro-2,3-dihydro-1H-indol-1-yl)propan-1-one], the “Alpha-1 % inhibition” value in the assay with alpha-1 receptors came to 38%. Also, in assay [1] (100 nM), the inhibition at 0.1 µM was 73%. The IC50 in assay [2] is 0.025 µM.
`Clc1cccc(N2CCN(CCCc3c[nH]c4ccccc34)CC2)c1Cl` [Compound 5a, 3-{3-[4-(2,3-Dichlorophenyl)piperazin-1-yl]propyl}-1H-indole]: the IC50 at alpha-1 receptors was 0.41 µM; in assay [1] it was 0.0028 µM; in assay [2], 0.0022 µM.
On to `Fc1ccc2[nH]cc(CCCN3CCN(c4cccc(Cl)c4Cl)CC3)c2c1` [Compound 5c, 3-{3-[4-(2,3-Dichlorophenyl)piperazin-1-yl]propyl}-5-fluoro-1H-indole], for which the IC50 worked out at 0.96 µM on alpha-1 receptors, 0.0068 µM in assay [1] and 0.0039 µM in assay [2].
On the same counts, the results for `Fc1ccc2[nH]cc(CCCCN3CCN(c4cccc(Cl)c4Cl)CC3)c2c1` [Compound 5d, 3-{4-[4-(2,3-Dichlorophenyl)piperazin-1-yl]butyl}-5-fluoro-1H-indole] are 0.72 µM, 0.001 µM and 0.0086 µM.
On to `Clc1ccc2c(CCCN3CCN(c4cccc(Cl)c4Cl)CC3)c[nH]c2c1` [Compound 5e, 6-Chloro-3-{3-[4-(2,3-dichlorophenyl)piperazin-1-yl]propyl}-1H-indole], for which the IC50 at alpha-1 receptors came to 0.47 µM; in assay [2], 0.027 µM. In addition, the inhibition at 0.1 µM in assay [1] (100 nM) was found to be 93%.
Take `O=C(CCCN1CCN(c2ccccc2Cl)CC1)N1CCc2ccccc21` [Compound 1d, 4-[4-(2-Chlorophenyl)piperazin-1-yl]-1-(2,3-dihydro-1H-indol-1-yl)butan-1-one]: the half-inhibitory concentration (IC50) turned out to be 0.097 µM at alpha-1 receptors, 0.02 µM in assay [1] and 0.00092 µM in assay [2].
Take `O=C(CCCN1CCN(c2cccc(Cl)c2)CC1)N1CCc2ccccc21` [Compound 1e, 4-[4-(3-Chlorophenyl)piperazin-1-yl]-1-(2,3-dihydro-1H-indol-1-yl)butan-1-one]: the IC50 at alpha-1 receptors is 0.017 µM; in assay [1], 0.05 µM; in assay [2] it was 0.0021 µM.
For the compound `O=C(CCN1CCN(c2ccccc2Cl)CC1)N1CCc2ccccc2C1` [Compound 8k, 3-[4-(2-Chlorophenyl)piperazin-1-yl]-1-(3,4-dihydro-1H-isoquinolin-2-yl)-propan-1-one], the “Alpha-1 % inhibition” value with alpha-1 receptors was determined as 92%. In assay [1] (100 nM), the inhibition at 0.1 µM came to 73%. In assay [2], the IC50 worked out at 0.008 µM.
Take `Clc1cccc(N2CCN(CCCCCN3CCc4ccccc43)CC2)c1Cl` [Compound 2c, 1-{5-[4-(2,3-Dichlorophenyl)piperazin-1-yl]pentyl}-2,3-dihydro-1H-indole]: the IC50 on alpha-1 receptors amounted to 0.19 µM; in assay [1] it was 0.022 µM; in assay [2], 0.018 µM.
As for `O=C(CCCN1CCN(c2ccccc2F)CC1)N1CCc2ccccc2C1` [Compound 9k, 1-(3,4-Dihydro-1H-isoquinolin-2-yl)-4-[4-(2-fluoro-phenyl)-piperazin-1-yl]-butan-1-one], the “Alpha-1 % inhibition” value in the assay with alpha-1 receptors stood at 69%. Further, in assay [1] (100 nM), the inhibition at 0.1 µM turned out to be 92%. Also, in assay [2], the 50% inhibitory concentration (IC50) turned out to be 0.009 µM.
`O=C(CCCN1CCN(c2cccc(Cl)c2Cl)CC1)N1CCc2cc(F)ccc21` [Compound 7b, 4-[4-(2,3-Dichlorophenyl)piperazin-1-yl]-1-(5-fluoro-2,3-dihydro-1H-indol-1-yl)butan-1-one]: the “Alpha-1 % inhibition” value in the assay with alpha-1 receptors was determined as 6%. Also, the inhibition at 0.1 µM in assay [1] (100 nM) amounted to 65%. Moreover, the IC50 in assay [2] came out at 0.053 µM.
Turning to `Clc1cccc(N2CCN(CCCCN3CCc4ccccc43)CC2)c1` [Compound 2e, 1-{4-[4-(3-Chlorophenyl)piperazin-1-yl]butyl}-2,3-dihydro-1H-indole], the concentration for half-maximal inhibition (IC50) on alpha-1 receptors was determined as 0.04 µM; in assay [1], 0.017 µM; in assay [2], 0.0016 µM.
In the case of `Clc1ccc2c(SCCN3CCN(c4cccc(Cl)c4Cl)CC3)c[nH]c2c1` [Compound 4, 6-Chloro-3-{2-[4-(2,3-dichlorophenyl)piperazin-1-yl]ethylsulfanyl}-1H-indole], the IC50 was 4.8 µM at alpha-1 receptors, 0.04 µM in assay [1] and 0.5 µM in assay [2].
Take `O=C(CCCN1CCN(c2cccc(Cl)c2Cl)CC1)N1CCc2ccccc2C1` [Compound 7e]: in the assay on alpha-1 receptors, the “Alpha-1 % inhibition” value came out at 31%. In addition, the inhibition at 0.1 µM in assay [1] (100 nM) amounted to 94%. The IC50 in assay [2] was 0.01 µM.
Regarding `O=C(CCCN1CCN(c2cccc(Cl)c2Cl)CC1)N1CCc2ccccc21` [Compound 1b, 4-[4-(2,3-Dichlorophenyl)piperazin-1-yl]-1-(2,3-dihydro-1H-indol-1-yl)butan-1-one], the IC50 at alpha-1 receptors came out at 1.1 µM; in assay [1], 0.003 µM; in assay [2], 0.0028 µM.
Regarding `Clc1ccccc1N1CCN(CCCCN2CCc3ccccc32)CC1` [Compound 2d, 1-{4-[4-(2-Chlorophenyl)piperazin-1-yl]butyl}-2,3-dihydro-1H-indole], the IC50 was 0.031 µM on alpha-1 receptors, 0.004 µM in assay [1] and 0.0012 µM in assay [2].
As to `Clc1cccc(N2CCN(CCCCC3CCc4ccccc43)CC2)c1Cl` (stereo not drawn) [Compound 3, 1-(2,3-Dichlorophenyl)-4-[4-(indan-1-yl)butyl]piperazine], in the assay on alpha-1 receptors, the “Alpha-1 % inhibition” value was −3%. Moreover, the IC50 amounted to 0.0068 µM in assay [1] and 0.011 µM in assay [2].
As for `O=C(CCCN1CCN(c2ccccc2Cl)CC1)N1CCc2ccccc2C1` [Compound 8l, 4-[4-(2-Chlorophenyl)piperazin-1-yl]-1-(3,4-dihydro-1H-isoquinolin-2-yl)-butan-1-one], the “Alpha-1 % inhibition” value in the assay on alpha-1 receptors was 74%. Besides, in assay [1] (100 nM), the inhibition at 0.1 µM amounted to 88%. Besides, the IC50 in assay [2] was found to be 0.004 µM.
`O=C1CCc2ccccc2N1CCCCN1CCN(c2cccc(Cl)c2Cl)CC1` [Compound 6, 1-{4-[4-(2,3-Dichlorophenyl)piperazin-1-yl]butyl}-3,4-dihydroquinolin-2(1H)-one]: the IC50 at alpha-1 receptors came out at 0.043 µM; in assay [1] it was 0.0018 µM; in assay [2], 0.016 µM.
As for `O=C(CCN1CCN(c2cccc(Cl)c2Cl)CC1)N1CCc2ccccc2C1` [Compound 7d, 3-[4-(2,3-Dichlorophenyl)piperazin-1-yl]-1-(3,4-dihydro-1H-isoquinolin-2-yl)-propan-1-one], the “Alpha-1 % inhibition” value in the assay with alpha-1 receptors is 44%. The inhibition at 0.1 µM in assay [1] (100 nM) is 85%. The IC50 in assay [2] came out at 0.006 µM.
On to `Clc1cccc(N2CCN(CCCN3CCc4ccccc43)CC2)c1Cl` [Compound 2a, 1-{3-[4-(2,3-Dichlorophenyl)piperazin-1-yl]propyl}-2,3-dihydro-1H-indole], for which the half-maximal inhibitory concentration (IC50) stood at 0.068 µM at alpha-1 receptors, 0.031 µM in assay [1] and 0.0018 µM in assay [2].

The values are drawn from patent publication US7074796B2 (H. Lundbeck A/S, priority 1999, dated 2006).
